Data on five compounds can be found in article PMC11869560, “Anticancer and cancer preventive activities of shogaol and curcumin from Zingiberaceae family plants in KG-1a leukemic stem cells” (BMC Complementary Medicine and Therapies, 2025).

Test [1] deals with KG-1a cells. Nature of the test: MTT cytotoxicity assay in KG-1a cells. It is filed as cell-based, human. The following applies: for Selectivity index (SI): IC50 for normal cells (PBMCs) / IC50 for cancer cells (KG-1a). On the procedure:
(§1) MTT (3-(4,5-dimethylthiazol-2-yl)-2,5-diphenyltetrazolium bromide) assay was used to investigate the cytotoxicity of the test samples. KG-1a (1.5 × 10^4 cells/well), K562 (1.0 × 10^4 cells/well), PBMCs (1.0 × 10^5 cells/well), A549 (5.0 × 10^3 cells/well), MCF-7 (5.0 × 10^3 cells/well), and HeLa (5.0 × 10^3 cells/well) were seeded into a 96-well plate and incubated overnight at 37 °C with 5% CO2. […] After that, 5 mg/mL of MTT dye solution (Sigma-Aldrich, MA, USA) was added and incubated for 4 h. The produced formazan crystals were dissolved in 200 µL of DMSO (Sigma-Aldrich, MA, USA); then, the optical density (OD) was measured using an ELISA plate reader (Metertech, Taipei, Taiwan) at 578 nm with a reference wavelength of 630 nm. The percentage of surviving cells was calculated from the absorbance values of the test and control wells using the following Equation. 1 [drawing 1]
(§2) where ODsample is a mean absorbance in test well and ODvehicle control is a mean absorbance in VC well. The average percentage of surviving cells at each concentration obtained from triplicate experiments was plotted as a dose-response curve. Inhibitory concentration values at 50% growth (IC50 value) were defined as the lowest concentration of the test sample that inhibited cell growth by 50% compared to the untreated control.
(§3) To calculate IC50 values, a dose-response curve was fitted using non-linear regression analysis, as described in the GraphPad Prism guidelines (https://www.graphpad.com/support/faq/how-to-determine-an-icsub50sub/). The IC50 value was obtained by determining the point at which the curve intersected 50% growth inhibition. Non-linear regression graphs of the dose-response curve for each compound are provided in the supplementary data file (Figs. S1–S8).
where IC50 N is IC50 for normal cells and IC50 C is IC50 for cancer cells which were treated with the same compounds in both cells.
For orientation: Tetrazolium assays rely on reduction of a dye to a coloured formazan, in cell work by metabolically active cells.

Another test has as its system PBMCs. Put plainly: MTT cytotoxicity assay in PBMCs. It is filed as cell-based, human. The following applies: Homo sapiens, PBMC. Here is the method: PBMCs were isolated from blood samples using the Ficoll-Hypaque technique. Initially, 10–20 mL of blood was collected in a heparin tube at a ratio of 1:500 from a minimum of three healthy volunteers. Subsequently, the blood samples were diluted with Phosphate buffer saline (PBS), pH 7.4, at a ratio of 1:1 to reduce viscosity. Histopaque-1077 (Sigma-Aldrich, MA, USA) was then underlaid the diluted sample and centrifuged at 400×g for 30 min. The resulting PBMCs were collected, washed with PBS, pH 7.4, and prepared for further experiments.
as §1, §2, §3

In another test the test system is RAW264.7 cells. Put plainly: Cytotoxicity (IC20, cell viability) in RAW264.7 cells. It is filed as cell-based. The following applies: Mus musculus, RAW264.7; incubation for 48 h; read-out: IC20 RAW264.7 (inhibitory concentration at 20% growth). Here is the method:
MTT (3-(4,5-dimethylthiazol-2-yl)-2,5-diphenyltetrazolium bromide) assay was used to investigate the cytotoxicity of the test samples. […] After that, 5 mg/mL of MTT dye solution (Sigma-Aldrich, MA, USA) was added and incubated for 4 h. The produced formazan crystals were dissolved in 200 μL of DMSO (Sigma-Aldrich, MA, USA); then, the optical density (OD) was measured using an ELISA plate reader ([…], Taiwan) at 578 nm with a reference wavelength of 630 nm. The percentage of surviving cells was calculated from the absorbance values of the test and control wells using the following Equation. 1 [drawing 1] […] Afterward, supernatants were collected, and the levels of TNF-α and NO were measured using the Mouse TNF alpha Uncoated ELISA Kit (InvitrogenTM, ThermoFisher Scientific, MA, USA) and the Total Nitric Oxide Assay Kit (InvitrogenTM, ThermoFisher Scientific, MA, USA), respectively, according to the manufacturer's instructions.

Test [2] has as its system KG-1a cells. Nature of the test: Trypan blue exclusion test, cell numbers of KG-1a cells. It is filed as cell-based, human. The conditions noted are these: IC20 concentrations, 48 h. Here is the method: This test was used to confirm the cytotoxicity of the test samples. The cancer cells after exposure to crude ethanolic extracts and active compounds for 48 h were harvested and washed with ice-cold PBS, pH 7.4 for 3 times. Then, the cells were resuspended with PBS, pH 7.4. The cell suspensions were diluted with PBS, pH 7.4 at the appropriate dilution before being mixed with 0.2% trypan blue solution at 1:2 dilution for cell count on a hemocytometer. From this test, the viable cells and the dead cells could also be obviously detected.
This test was used to confirm the cytotoxicity of crude ethanolic extracts and active compounds. KG-1a cells after exposure to crude ethanolic extracts and active compounds for 48 h were harvested and washed with ice-cold PBS, pH 7.4 for 3 times. Then, the cells were resuspended with PBS, pH 7.4. The cell suspensions were diluted with PBS, pH 7.4 at the appropriate dilution before being mixed with 0.2% trypan blue solution at 1:2 dilution for cell count on a hemocytometer. From this test, the viable cells and the dead cells could also be obviously detected.

The mark [3] stands for this setting: Homo sapiens, KG-1a, 48 h, drugs, MTT, 48 h, read-out: IC50 KG-1a.
The mark [4] stands for this setting: Homo sapiens, KG-1a, Table S7, KG-1a, first replicate, read-out: IC50 value R1.
Where [5] appears, read: Homo sapiens, KG-1a, Table S7, KG-1a, mean of R1-R3, read-out: IC50 value Mean.
Setting [6] is: Homo sapiens, KG-1a, Table S7, KG-1a, second replicate, read-out: IC50 value R2.
Where [7] appears, read: Homo sapiens, KG-1a, Table S7, KG-1a, third replicate, read-out: IC50 value R3.
[8] abbreviates: Table S8, PBMCs, first replicate, read-out: IC50 value R1.
[9] abbreviates: Table S8, PBMCs, mean of R1-R3, read-out: IC50 value Mean.
Where [10] appears, read: Table S8, PBMCs, second replicate, read-out: IC50 value R2.
Setting [11] is: Table S8, PBMCs, third replicate, read-out: IC50 value R3.
[12] abbreviates: drugs, MTT, 48 h, read-out: IC50 PBMCs.
[13] abbreviates: Homo sapiens, KG-1a, 48 h, active compounds and drugs, MTT, 48 h, read-out: IC50 KG-1a.
Where [14] appears, read: active compounds and drugs, MTT, 48 h, read-out: IC50 PBMCs.

The structures appear in SMILES notation. Converted amounts (≈) assume the structure as drawn. Read-outs that look alike come from different tables or passages of the source.

For the compound `O=P1(N(CCCl)CCCl)NCCCO1` (centres unmarked) [Cyclophosphamide, cyclophosphamide, reference compound], the IC50 is above 400 µg/mL in the test on KG-1a cells [1] (Homo sapiens, KG-1a, 48 h, read-out: IC50 KG-1a); above 400 µg/mL with KG-1a cells [1] (Homo sapiens, KG-1a, read-out: IC50 value Mean); above 400 µg/mL with KG-1a cells [1] (Homo sapiens, KG-1a, read-out: IC50 value R1); above 400 µg/mL in the test on KG-1a cells [1] (Homo sapiens, KG-1a, read-out: IC50 value R2); above 400 µg/mL with KG-1a cells [1] (Homo sapiens, KG-1a, read-out: IC50 value R3); above 400 µg/mL in the test with PBMCs (48 h, read-out: IC50 PBMCs). In addition, the IC50 in the test with PBMCs (read-out: IC50 value Mean), with PBMCs (read-out: IC50 value R1), in the test with PBMCs (read-out: IC50 value R2) and in the test on PBMCs (read-out: IC50 value R3) was above 400 µg/mL in each case.

For `CC(=O)[C@]1(O)Cc2c(O)c3c(c(O)c2[C@@H](O[C@H]2C[C@H](N)[C@H](O)[C@H](C)O2)C1)C(=O)c1ccccc1C3=O` [Idarubicin, idarubicin, reference compound], the IC50 in the test on KG-1a cells [1] (setting [3]) was 0.0313 ± 0.00504 µg/mL (≈ 0.0629 µM); in the test with KG-1a cells [1] (setting [4]) it was 0.0259 µg/mL (≈ 0.052 µM); with KG-1a cells [1] (setting [5]), 0.0279 µg/mL (≈ 0.0561 µM); in the test with KG-1a cells [1] (setting [6]), 0.0318 µg/mL (≈ 0.0639 µM); in the test with KG-1a cells [1] (setting [7]), 0.026 µg/mL (≈ 0.0522 µM); in the test with PBMCs (setting [8]) it was above 1 µg/mL. Further, the IC50 in the test on PBMCs (setting [9]), with PBMCs (setting [10]), in the test on PBMCs (setting [11]) and in the test on PBMCs (setting [12]) was above 1 µg/mL in each case.

With `O=C(/C=C/c1ccc(O)cc1)CC(=O)/C=C/c1ccc(O)cc1` [Bisdemethoxycurcumin, bisdemethoxycurcumin], the IC20 with RAW264.7 cells came out at 2.71 ± 0.62 µg/mL (≈ 8.79 µM); in the test with KG-1a cells [1] (Homo sapiens, KG-1a, 48 h, incubation for 48 h, read-out: IC20 KG-1a (inhibitory concentration at 20% growth)) it was 7.97 ± 2.07 µg/mL (≈ 25.8 µM); with PBMCs (incubation for 48 h, read-out: IC20 PBMCs (inhibitory concentration at 20% growth)) it was 6.9 ± 1.59 µg/mL (≈ 22.4 µM). Moreover, the “decrease of total cell number compared to VC” value with KG-1a cells [2] was found to be 47.21 ± 7.98%. Besides, the “normalized viable cell counts” value in the test with KG-1a cells [2] is listed as 962.81 ± 19.30 × 10^3 cells per 1 million total cells. For the same compound, the IC50 was determined as 17.9 ± 0.99 µg/mL (≈ 58.1 µM) with KG-1a cells [1] (setting [13]); 17.1 µg/mL (≈ 55.6 µM) in the test with KG-1a cells [1] (setting [4]); 17.6 µg/mL (≈ 57 µM) in the test on KG-1a cells [1] (setting [6]); 19 µg/mL (≈ 61.7 µM) with KG-1a cells [1] (setting [7]); 12.6 µg/mL (≈ 40.7 µM) with PBMCs (setting [8]); 12.2 µg/mL (≈ 39.4 µM) in the test on PBMCs (setting [10]). Besides, the half-maximal inhibitory concentration (IC50) worked out at 10.2 µg/mL (≈ 33.1 µM) in the test on PBMCs (setting [11]) and 11.6 ± 1.25 µg/mL (≈ 37.8 µM) in the test on PBMCs (setting [14]). Moreover, the “Selectivity index (SI)” value in the test with KG-1a cells [1] (48 h) came to 0.65.

On to `COc1cccc2c1C(=O)c1c(O)c3c(c(O)c1C2=O)C[C@@](O)(C(=O)CO)C[C@@H]3O[C@H]1C[C@H](N)[C@H](O)[C@H](C)O1` [Doxorubicin, doxorubicin, reference compound], for which the IC50 in the test with KG-1a cells [1] (setting [3]) was 0.652 ± 0.142 µg/mL (≈ 1.2 µM); with KG-1a cells [1] (setting [4]), 0.807 µg/mL (≈ 1.48 µM); in the test on KG-1a cells [1] (setting [6]), 0.622 µg/mL (≈ 1.14 µM); in the test on KG-1a cells [1] (setting [7]), 0.528 µg/mL (≈ 0.971 µM); in the test with PBMCs (setting [8]), above 1 µg/mL; with PBMCs (setting [9]), above 1 µg/mL. In addition, the IC50 in the test with PBMCs (setting [10]), in the test with PBMCs (setting [11]) and in the test with PBMCs (setting [12]) was above 1 µg/mL each time. Further, the “Selectivity index (SI)” value in the test on KG-1a cells [1] (48 h) is reported as above 1.53; in the test with KG-1a cells [1] (48 h, listed as doxorubicin) it was “greater than 1”.

For the compound `Nc1ccn([C@@H]2O[C@H](CO)[C@@H](O)[C@@H]2O)c(=O)n1` [Cytarabine, cytarabine, reference compound], the IC50 in the test on KG-1a cells [1] (setting [13]), in the test with KG-1a cells [1] (setting [4]), with KG-1a cells [1] (setting [5]), with KG-1a cells [1] (setting [6]), in the test with KG-1a cells [1] (setting [7]) and with PBMCs (setting [8]) was above 100 µg/mL in each case. Moreover, the IC50 in the test on PBMCs (setting [9]), in the test on PBMCs (setting [10]), in the test with PBMCs (setting [11]) and in the test on PBMCs (setting [14]) was above 100 µg/mL in each case. In the test with KG-1a cells [1] (48 h), the “Selectivity index (SI)” value was above 1.

The IC50 is the concentration needed to halve the response being measured.
